From ChEMBL document CHEMBL4177599, “The antitubercular activity of various nitro(triazole/imidazole)-based compounds” (Bioorg Med Chem, 2017)
Converted amounts (≈) assume the structure as drawn.

Experiments:
Assay type in all cases: functional, organism-based
[1] = tested on: Mycobacterium tuberculosis; test: Antitubercular activity against isoniazid-resistant Mycobacterium tuberculosis H37Rv INH-R1 harboring katG Y155 mutant after 5 days
[2] = tested on: Mycobacterium tuberculosis; test: Antitubercular activity against rifampicin-resistant Mycobacterium tuberculosis H37Rv RIF-R1 harboring rpoB S522L mutant after 5 days
[3] = tested on: Mycobacterium tuberculosis; test: Antitubercular activity against fluoroquinolone-resistant Mycobacterium tuberculosis H37Rv harboring gyrB D94N mutant after 5 days
[4] = tested on: Mycobacterium tuberculosis; test: Antitubercular activity against isoniazid-resistant Mycobacterium tuberculosis INH-R2 ATCC 35822 after 5 days; conditions: INH-R2 ATCC 35822, 120 h
[5] = tested on: Mycobacterium tuberculosis; test: Antitubercular activity against rifampicin-resistant Mycobacterium tuberculosis H37Rv RIF-R2 ATCC 35828 after 5 days; conditions: H37Rv RIF-R2 ATCC 35828, 120 h

Compound | MIC [1] [µM] | MIC [2] [µM] | MIC [3] [µM] | MIC [4] [µM] | MIC [5] [µM] | IC50 [1] [µM] | IC90 [1] [µM] | IC50 [2] [µM] | IC90 [2] [µM] | IC50 [3] [µM] | IC90 [3] [µM] | IC50 [4] [µM] | IC90 [4] [µM] | IC50 [5] [µM] | IC90 [5] [µM]
O=C(NCCCCn1cnc([N+](=O)[O-])n1)c1sc2ccccc2c1Cl | 7.5 (≈ 2.85 µg/mL) | 7.9 (≈ 3 µg/mL) | 7.1 (≈ 2.7 µg/mL) | 7.3 (≈ 2.77 µg/mL) | 6.4 (≈ 2.43 µg/mL) | – | – | – | – | – | – | – | – | – | –
O=C(NCCCCn1cnc([N+](=O)[O-])n1)c1nc2ccccc2s1 | 11.1 (≈ 3.84 µg/mL) | 8.9 (≈ 3.08 µg/mL) | 8.2 (≈ 2.84 µg/mL) | 7.9 (≈ 2.74 µg/mL) | 7.9 (≈ 2.74 µg/mL) | – | – | – | – | – | – | – | – | – | –
O=C(Cn1cnc([N+](=O)[O-])n1)Nc1nc(-c2ccc(F)c(F)c2)cs1 | 50 (≈ 18.3 µg/mL) | 39 (≈ 14.3 µg/mL) | 48 (≈ 17.6 µg/mL) | 49 (≈ 17.9 µg/mL) | 45 (≈ 16.5 µg/mL) | 32 | 47 | 25 | 40 | 31 | 44 | 31 | 45 | 30 | 38
O=C(Cn1cnc([N+](=O)[O-])n1)Nc1ccc(N2CCCCC2)cc1 | 54 (≈ 17.8 µg/mL) | 36 (≈ 11.9 µg/mL) | 50 (≈ 16.5 µg/mL) | 48 (≈ 15.9 µg/mL) | 51 (≈ 16.8 µg/mL) | 34 | 53 | 25 | 41 | 32 | 47 | 30 | 44 | 36 | 49
O=C(Cn1cnc([N+](=O)[O-])n1)Nc1ccc(Oc2ccccc2)cc1 | 125 (≈ 42.4 µg/mL) | 133 (≈ 45.1 µg/mL) | 200 (≈ 67.9 µg/mL) | > 200 | 116 (≈ 39.4 µg/mL) | 73 | 130 | 70 | 150 | 70 | 130 | 66 | 110 | 55 | 170
O=C(Cn1cnc([N+](=O)[O-])n1)Nc1ccc(Oc2ccc(Cl)cc2)cc1 | 91 (≈ 34 µg/mL) | 98 (≈ 36.6 µg/mL) | 94 (≈ 35.1 µg/mL) | 55 (≈ 20.6 µg/mL) | 100 (≈ 37.4 µg/mL) | 54 | 76 | 58 | 91 | 56 | 84 | 36 | 54 | 55 | 150
O=C(Cn1cnc([N+](=O)[O-])n1)Nc1cccc(-c2ccccc2)c1 | 48 (≈ 15.5 µg/mL) | 35 (≈ 11.3 µg/mL) | 28 (≈ 9.05 µg/mL) | 28 (≈ 9.05 µg/mL) | 33 (≈ 10.7 µg/mL) | 31 | 43 | 24 | 40 | 29 | 39 | 26 | 31 | 29 | 33
O=C(Cn1cnc([N+](=O)[O-])n1)Nc1ccc(Cc2ccccc2)cc1 | 50 (≈ 16.9 µg/mL) | 44 (≈ 14.8 µg/mL) | 30 (≈ 10.1 µg/mL) | 31 (≈ 10.5 µg/mL) | 48 (≈ 16.2 µg/mL) | 33 | 47 | 27 | 40 | 28 | 32 | 29 | 37 | 34 | 44
O=C(Cn1ccnc1[N+](=O)[O-])Nc1ccc(Oc2ccccc2)cc1 | >200 | >200 | >200 | > 200 | > 200 | 75 | 140 | 84 | > 200 | 74 | > 200 | 80 | > 200 | 110 | > 200
O=C(Cn1ccnc1[N+](=O)[O-])Nc1ccc(Oc2ccc(Cl)cc2)cc1 | >200 | >200 | >200 | > 200 | > 200 | > 100 | > 100 | 48 | > 100 | > 100 | > 100 | > 100 | > 100 | 56 | > 100
O=C(Cn1ccnc1[N+](=O)[O-])Nc1ccc(Oc2ccc(F)cc2)cc1 | >200 | >200 | 200 (≈ 71.3 µg/mL) | > 200 | > 200 | 65 | > 100 | 46 | > 100 | 75 | 190 | 70 | > 100 | 78 | > 200
O=C(Cn1cnc([N+](=O)[O-])n1)N1CCN(Cc2ccc(C(F)(F)F)cc2)CC1 | 48 (≈ 19.1 µg/mL) | 31 (≈ 12.3 µg/mL) | 28 (≈ 11.2 µg/mL) | 28 (≈ 11.2 µg/mL) | 45 (≈ 17.9 µg/mL) | 32 | 44 | 21 | 32 | 27 | 31 | 26 | 32 | 32 | 41
O=C(Cn1cnc([N+](=O)[O-])n1)N1CCN(Cc2ccc(Cl)c(Cl)c2)CC1 | 14 (≈ 5.59 µg/mL) | 7.7 (≈ 3.07 µg/mL) | 12 (≈ 4.79 µg/mL) | 12 (≈ 4.79 µg/mL) | 12 (≈ 4.79 µg/mL) | 9 | 14 | 4.9 | 8.3 | 7.4 | 11 | 7.3 | 12 | 9.4 | 12
O=C(Cn1cnc([N+](=O)[O-])n1)N1CCN(C(c2ccccc2)c2ccc(Cl)cc2)CC1 (stereo not given) | 79 (≈ 34.8 µg/mL) | 42 (≈ 18.5 µg/mL) | 72 (≈ 31.7 µg/mL) | 45 (≈ 19.8 µg/mL) | 71 (≈ 31.3 µg/mL) | 48 | 82 | 27 | 32 | 46 | 78 | 29 | 35 | 47 | 68
O=C(CCn1cnc([N+](=O)[O-])n1)Nc1cccc(OCc2ccccc2)c1 | 6.2 (≈ 2.28 µg/mL) | 3.6 (≈ 1.32 µg/mL) | 6 (≈ 2.2 µg/mL) | 5.7 (≈ 2.09 µg/mL) | 5.6 (≈ 2.06 µg/mL) | 4.5 | 5.9 | 2.2 | 3.7 | 3.4 | 6.2 | 3.2 | 5.6 | 4.1 | 5.2
O=C(CCn1cnc([N+](=O)[O-])n1)Nc1ccc(Oc2ccccc2)cc1 | 59 (≈ 20.8 µg/mL) | 48 (≈ 17 µg/mL) | 62 (≈ 21.9 µg/mL) | 56 (≈ 19.8 µg/mL) | 48 (≈ 17 µg/mL) | 38 | 71 | 28 | 42 | 32 | 68 | 26 | 53 | 29 | 40
CC(O)(Cn1cnc([N+](=O)[O-])n1)c1ccc(-c2ccc(C#N)cc2)cc1 (stereo not given) | >200 | >200 | >200 | > 200 | > 200 | – | – | – | – | – | – | – | – | – | –
O=C(CCn1cnc([N+](=O)[O-])n1)Nc1ccc(Oc2ccc(F)cc2)cc1 | 50 (≈ 18.6 µg/mL) | 25 (≈ 9.28 µg/mL) | 46 (≈ 17.1 µg/mL) | 36 (≈ 13.4 µg/mL) | 58 (≈ 21.5 µg/mL) | 29 | 65 | 16 | 23 | 26 | 48 | 19 | 37 | 21 | 53
O=C(CCn1cnc([N+](=O)[O-])n1)Nc1cccc(-c2ccccc2)c1 | 15 (≈ 5.06 µg/mL) | 7.7 (≈ 2.6 µg/mL) | 13 (≈ 4.39 µg/mL) | 10 (≈ 3.37 µg/mL) | 12 (≈ 4.05 µg/mL) | 8.5 | 15 | 4.1 | 8 | 6.8 | 14 | 6.2 | 11 | 8.1 | 11
O=C(CCn1cnc([N+](=O)[O-])n1)Nc1ccc(Oc2ccc(Cl)cc2)cc1 | 46 (≈ 17.8 µg/mL) | 24 (≈ 9.31 µg/mL) | 40 (≈ 15.5 µg/mL) | 31 (≈ 12 µg/mL) | 29 (≈ 11.2 µg/mL) | 25 | 53 | 15 | 22 | 24 | 42 | 18 | 32 | 17 | 30
NNC(=O)c1ccncc1 [ISONIAZID] | >200 | 0.31 (≈ 0.0425 µg/mL) | 0.35 (≈ 0.048 µg/mL) | > 200 | 0.67 (≈ 0.0919 µg/mL) | – | – | – | – | – | – | – | – | – | –
C[C@H]1COc2c(N3CCN(C)CC3)c(F)cc3c(=O)c(C(=O)O)cn1c23.C[C@H]1COc2c(N3CCN(C)CC3)c(F)cc3c(=O)c(C(=O)O)cn1c23.O [LEVOFLOXACIN] | 1.1 | 0.85 | 14 | 1.3 | 1.4 | – | – | – | – | – | – | – | – | – | –
CO[C@H]1/C=C/O[C@@]2(C)Oc3c(C)c(O)c4c(O)c(c(/C=N/N5CCN(C)CC5)c(O)c4c3C2=O)NC(=O)/C(C)=C\C=C\[C@H](C)[C@H](O)[C@@H](C)[C@@H](O)[C@@H](C)[C@H](OC(C)=O)[C@@H]1C [RIFAMPIN] | 0.012 (≈ 0.00988 µg/mL) | 7.2 (≈ 5.93 µg/mL) | >0.04 | 0.011 (≈ 0.00905 µg/mL) | > 50 | – | – | – | – | – | – | – | – | – | –
